Laboratory results reported in publication PMC6811361, “Effect of a bound anion on the structure and dynamics of halorhodopsin from Natronomonas pharaonis” (Structural Dynamics, 2019).

Columns and labels:
Type in all cases: binding
[1] = target: T1, halorhodopsin from Natronomonas pharaonis (NpHR) (Natronomonas pharaonis, UniProt P15647, W229F); experiment: absorption and time-resolved UV resonance Raman spectroscopy; conditions: covalent, protonated Schiff base; retinal added to expression culture
T1 construct: gene hop; C-terminal His tag, expressed in E. coli BL21(DE3), solubilised and purified in DDM; all-trans-retinal on Lys256
T1 sequence (P15647 whole entry W229F): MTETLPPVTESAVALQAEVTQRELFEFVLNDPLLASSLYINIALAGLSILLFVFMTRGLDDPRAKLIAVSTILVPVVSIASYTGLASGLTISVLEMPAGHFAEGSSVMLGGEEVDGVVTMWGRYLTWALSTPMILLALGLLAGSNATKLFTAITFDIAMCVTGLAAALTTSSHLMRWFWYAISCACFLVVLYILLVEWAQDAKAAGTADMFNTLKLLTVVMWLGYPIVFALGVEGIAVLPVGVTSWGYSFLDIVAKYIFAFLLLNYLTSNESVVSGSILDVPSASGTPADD

[2] = target: T2, halorhodopsin from Natronomonas pharaonis (NpHR) (Natronomonas pharaonis, UniProt P15647, W127F); experiment: as above; conditions: covalent, protonated Schiff base; retinal added to expression culture
T2 construct: gene hop; C-terminal His tag, expressed in E. coli BL21(DE3), solubilised and purified in DDM; all-trans-retinal on Lys256
T2 sequence (P15647 whole entry W127F): as the sequence (P15647 whole entry W229F) above, with W127F, F229W counted along it

[3] = target: T3, halorhodopsin from Natronomonas pharaonis (NpHR) (Natronomonas pharaonis, UniProt P15647); experiment: visible resonance Raman spectroscopy (C=N stretch, deuteration shift); conditions: covalent, protonated Schiff base at Lys256; pH 7.0; chloride-bound, formate-bound and anion-depleted forms
T3 construct: gene hop; C-terminal His tag, expressed in E. coli BL21(DE3), solubilised and purified in DDM; all-trans-retinal on Lys256
T3 sequence (P15647 whole entry): as the sequence (P15647 whole entry W229F) above, with F229W counted along it

SMILES: CC1=C(/C=C/C(C)=C/C=C/C(C)=C/C=O)C(C)(C)CCC1 [all-trans-retinal]
- absorption and time-resolved UV resonance Raman spectroscopy [1]: sufficient amounts of the W127F and W229F NpHR mutants were obtained to measure their spectra
- absorption and time-resolved UV resonance Raman spectroscopy [2]: sufficient amounts of the W127F and W229F NpHR mutants were obtained to measure their spectra
- visible resonance Raman spectroscopy (C=N stretch, deuteration shift) [3]: The observed deuteration shifts indicate that the Schiff base is protonated in all three forms
